Experiments:
[1] = human, in vivo, 28 days
[2] = cited from earlier work

In the case of `CC(=O)c1c(C)c2cnc(Nc3ccc(N4CCNCC4)cn3)nc2n(C2CCCC2)c1=O` [palbociclib], the “Dose limiting toxicities observed” value [1] is listed as “grade 4 neutropenia and grade 3 thrombocytopenia and dehydration” and the permeability [2] is listed as “high permeability”.

Source: paper PMC8414988 (Pediatric blood & cancer, 2021)
